# According to ChEMBL document CHEMBL1201862, “PubChem BioAssay data set” (2004):
#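 Tested at 5 concentrations; 48 h exposure; 96-well plates; endpoints linearly interpolated, else capped at highest concentration. Abbreviation: GI50, concentration required for 50% inhibition of growth.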 Activity calls are given as the source filed them. Cut-off read from the data, not from the text of the source: active = GI50 up to about 1.1 µM and inactive = higher.
# What was measured:
# Experiment in all cases: NCI-60 cell line screen, 48 h
# [1] = test system: M14
# [2] = test system: LOX IMVI
# [3] = test system: SK-MEL-2
# [4] = test system: RPMI-8226
# [5] = test system: SF-268
# [6] = test system: NCI-H522
# [7] = test system: Hs-578T
# [8] = test system: SK-OV-3
# [9] = test system: PC-3
# [10] = test system: SR
# [11] = test system: DU-145
# [12] = test system: 786-0
# [13] = test system: SK-MEL-5
# [14] = test system: SW-620
# [15] = test system: HT-29
# [16] = test system: MCF7
# [17] = test system: NCI-H226
# [18] = test system: U-251
# [19] = test system: IGROV-1
# [20] = test system: UO-31
# [21] = test system: K562
# [22] = test system: OVCAR-8
# [23] = test system: EKVX
# [24] = test system: HL-60
# [25] = test system: CAKI-1
# [26] = test system: MDA-MB-231
# [27] = test system: OVCAR-5
# [28] = test system: MOLT-4
# [29] = test system: TK-10
# [30] = test system: ACHN
# [31] = test system: T47D
# [32] = test system: HCT-116
# [33] = test system: NCI-H460
# [34] = test system: SF-295
# [35] = test system: RXF 393
# [36] = test system: OVCAR-4
# [37] = test system: UACC-257
# [38] = test system: A498
# [39] = test system: NCI/ADR-RES
# [40] = test system: MDA-MB-435
# [41] = test system: SK-MEL-28
# [42] = test system: KM12
# [43] = test system: NCI-H23
# [44] = test system: HCT-15
# [45] = test system: SF-539
# [46] = test system: OVCAR-3
# [47] = test system: CCRF-CEM
# [48] = test system: HOP-62
# [49] = test system: MDA-N
# [50] = test system: HCC 2998
# [51] = test system: HOP-92
# [52] = test system: A549
# [53] = test system: SNB-75
# [54] = test system: SN12C
# [55] = test system: Malme-3M
# [56] = test system: SNB-19
# [57] = test system: COLO 205
smiles,measurement,setting,value
Cc1nn(CNc2ccc(F)c(Cl)c2)c(=S)n1/N=C/c1ccc(-c2ccc(Cl)cc2Cl)o1,GI50,[1],18.7 µM (inactive)
same,GI50,[2],16.6 µM (inactive)
same,GI50,[3],22.6 µM (inactive)
same,GI50,[4],14.8 µM (inactive)
same,GI50,[5],16.3 µM (inactive)
same,GI50,[6],14.4 µM (inactive)
same,GI50,[7],15.5 µM (inactive)
same,GI50,[8],16.9 µM (inactive)
same,GI50,[9],16.4 µM (inactive)
same,GI50,[10],1.4 µM (inactive)
same,GI50,[11],16.9 µM (inactive)
same,GI50,[12],15.3 µM (inactive)
same,GI50,[13],16.7 µM (inactive)
same,GI50,[14],15.6 µM (inactive)
same,GI50,[15],19.6 µM (inactive)
same,GI50,[16],18.2 µM (inactive)
same,GI50,[17],17.2 µM (inactive)
same,GI50,[18],14.7 µM (inactive)
same,GI50,[19],16.7 µM (inactive)
same,GI50,[20],16.7 µM (inactive)
same,GI50,[21],1.49 µM (inactive)
same,GI50,[22],20.8 µM (inactive)
same,GI50,[23],16.4 µM (inactive)
same,GI50,[24],1.44 µM (inactive)
same,GI50,[25],16.8 µM (inactive)
same,GI50,[26],17.8 µM (inactive)
same,GI50,[27],19.1 µM (inactive)
same,GI50,[28],0.493 µM (active)
same,GI50,[29],15.3 µM (inactive)
same,GI50,[30],16.6 µM (inactive)
same,GI50,[31],18.5 µM (inactive)
same,GI50,[32],15.7 µM (inactive)
same,GI50,[33],17.1 µM (inactive)
same,GI50,[34],15.7 µM (inactive)
same,GI50,[35],17.9 µM (inactive)
same,GI50,[36],20.1 µM (inactive)
same,GI50,[37],22.3 µM (inactive)
same,GI50,[38],15.1 µM (inactive)
same,GI50,[39],19.3 µM (inactive)
same,GI50,[40],17.6 µM (inactive)
same,GI50,[41],19.7 µM (inactive)
same,GI50,[42],20.5 µM (inactive)
same,GI50,[43],20.1 µM (inactive)
same,GI50,[44],16.9 µM
same,GI50,[45],16.8 µM (inactive)
same,GI50,[46],17.3 µM (inactive)
same,GI50,[47],4.16 µM (inactive)
same,GI50,[48],14.1 µM (inactive)
same,GI50,[49],17.7 µM (inactive)
CC1CN=C(N(C(=O)Nc2ccccc2)c2ccc(Cl)c(Cl)c2)S1 (stereo not drawn),GI50,[1],38.7 µM (inactive)
same,GI50,[2],25.9 µM (inactive)
same,GI50,[3],18.9 µM (inactive)
same,GI50,[4],41.3 µM (inactive)
same,GI50,[5],61 µM (inactive)
same,GI50,[7],65 µM (inactive)
same,GI50,[8],52.7 µM (inactive)
same,GI50,[9],26.8 µM (inactive)
same,GI50,[10],24.4 µM (inactive)
same,GI50,[11],45.8 µM (inactive)
same,GI50,[12],31.1 µM (inactive)
same,GI50,[13],18.5 µM (inactive)
same,GI50,[14],30.5 µM (inactive)
same,GI50,[50],24.8 µM (inactive)
same,GI50,[15],16.1 µM (inactive)
same,GI50,[16],19.8 µM (inactive)
same,GI50,[18],> 10 µM (inactive)
same,GI50,[19],41.6 µM (inactive)
same,GI50,[20],24.8 µM (inactive)
same,GI50,[51],17.1 µM (inactive)
same,GI50,[52],25.9 µM (inactive)
same,GI50,[21],> 10 µM (inactive)
same,GI50,[53],> 100 µM (inactive)
same,GI50,[22],35.6 µM (inactive)
same,GI50,[23],23.3 µM (inactive)
same,GI50,[24],30.3 µM (inactive)
same,GI50,[25],27.9 µM (inactive)
same,GI50,[54],16.6 µM (inactive)
same,GI50,[26],18.2 µM (inactive)
same,GI50,[27],34.1 µM (inactive)
same,GI50,[28],> 10 µM (inactive)
same,GI50,[55],38 µM (inactive)
same,GI50,[29],28.2 µM (inactive)
same,GI50,[30],31.6 µM (inactive)
same,GI50,[31],14.4 µM (inactive)
same,GI50,[32],23.1 µM (inactive)
same,GI50,[33],19.3 µM (inactive)
same,GI50,[34],45.5 µM (inactive)
same,GI50,[36],75.3 µM (inactive)
same,GI50,[37],32.2 µM (inactive)
same,GI50,[38],14.3 µM (inactive)
same,GI50,[56],70.6 µM (inactive)
same,GI50,[57],> 10 µM (inactive)
same,GI50,[39],20.7 µM (inactive)
same,GI50,[41],40.6 µM (inactive)
same,GI50,[42],30.5 µM (inactive)
same,GI50,[43],32.8 µM (inactive)
same,GI50,[44],23.2 µM
same,GI50,[45],40.5 µM (inactive)
same,GI50,[46],> 10 µM (inactive)
same,GI50,[47],> 10 µM (inactive)
same,GI50,[48],97.3 µM (inactive)
same,GI50,[49],> 10 µM (inactive)
CCCCc1ccc(N2C(=O)c3cc(C)cnc3S2(=O)=O)cc1,GI50,[1],> 100 µM (inactive)
same,GI50,[2],> 100 µM (inactive)
same,GI50,[3],> 100 µM (inactive)
same,GI50,[4],> 100 µM (inactive)
same,GI50,[5],97.5 µM (inactive)
same,GI50,[6],> 100 µM (inactive)
same,GI50,[7],43.1 µM (inactive)
same,GI50,[8],63.2 µM (inactive)
same,GI50,[9],> 100 µM (inactive)
same,GI50,[10],> 100 µM (inactive)
same,GI50,[11],> 100 µM (inactive)
same,GI50,[12],> 100 µM (inactive)
same,GI50,[13],> 100 µM (inactive)
same,GI50,[14],> 100 µM (inactive)
same,GI50,[50],> 100 µM (inactive)
same,GI50,[15],> 100 µM (inactive)
same,GI50,[16],> 100 µM (inactive)
same,GI50,[17],> 100 µM (inactive)
same,GI50,[18],> 100 µM (inactive)
same,GI50,[19],> 100 µM (inactive)
same,GI50,[20],> 100 µM (inactive)
same,GI50,[51],> 100 µM (inactive)
same,GI50,[52],> 100 µM (inactive)
same,GI50,[21],> 100 µM (inactive)
same,GI50,[53],59.2 µM (inactive)
same,GI50,[22],> 100 µM (inactive)
same,GI50,[23],> 100 µM (inactive)
same,GI50,[24],> 100 µM (inactive)
same,GI50,[54],> 100 µM (inactive)
same,GI50,[26],> 100 µM (inactive)
same,GI50,[27],> 100 µM (inactive)
same,GI50,[28],> 100 µM (inactive)
same,GI50,[55],> 100 µM (inactive)
same,GI50,[30],> 100 µM (inactive)
same,GI50,[31],> 100 µM (inactive)
same,GI50,[32],> 100 µM (inactive)
same,GI50,[33],> 100 µM (inactive)
same,GI50,[34],91.8 µM (inactive)
same,GI50,[35],49.2 µM (inactive)
same,GI50,[36],> 100 µM (inactive)
same,GI50,[56],> 100 µM (inactive)
same,GI50,[57],> 100 µM (inactive)
same,GI50,[39],> 100 µM (inactive)
same,GI50,[40],> 100 µM (inactive)
same,GI50,[41],> 100 µM (inactive)
same,GI50,[42],> 100 µM (inactive)
same,GI50,[43],> 100 µM (inactive)
same,GI50,[44],> 100 µM
same,GI50,[46],> 100 µM (inactive)
same,GI50,[48],85.7 µM (inactive)
same,GI50,[49],> 100 µM (inactive)
